Holding throughout (assay): KinomeScan profiling
Type in all cases: binding

Test [1] deals with T1, ACVR1B (Homo sapiens, UniProt P36896).
T1 construct: purchased KinomeScan®
T1 sequence (P36896 24-505): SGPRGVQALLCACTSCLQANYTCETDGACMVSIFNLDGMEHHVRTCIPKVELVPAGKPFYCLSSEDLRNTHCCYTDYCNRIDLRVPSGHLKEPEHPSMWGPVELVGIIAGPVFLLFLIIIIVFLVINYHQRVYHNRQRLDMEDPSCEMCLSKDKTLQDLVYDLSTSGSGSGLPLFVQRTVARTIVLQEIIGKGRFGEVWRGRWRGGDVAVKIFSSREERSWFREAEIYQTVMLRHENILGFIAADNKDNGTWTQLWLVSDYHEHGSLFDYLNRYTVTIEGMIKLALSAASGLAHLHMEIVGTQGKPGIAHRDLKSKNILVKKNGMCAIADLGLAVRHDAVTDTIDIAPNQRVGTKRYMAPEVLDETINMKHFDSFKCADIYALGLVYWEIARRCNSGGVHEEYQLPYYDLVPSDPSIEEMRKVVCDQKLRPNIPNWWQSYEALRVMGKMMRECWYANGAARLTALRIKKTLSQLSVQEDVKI
The note with it: read-out: % control. The method in brief:
(§1)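 Luminescence (RLU) was converted to percent of control, with DMSO set as 100% and a reference compound as 0%. Test compounds were run at 1 μM against 468 kinases. Kinases showing below 35% of control were scored as bound.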

Test [2] has as its target MKNK2 (Homo sapiens, UniProt Q9HBH9). The note with it: MKNK2, 1 μM; read-out: % control. The method in brief: as §1
In test [3] the target is T2, RSK1(Kin.Dom.2-C-terminal) (Homo sapiens, UniProt Q15418).
T2 construct: RSK1(Kin.Dom.2-C-terminal)
T2 sequence (Q15418 418-675 limits assumed): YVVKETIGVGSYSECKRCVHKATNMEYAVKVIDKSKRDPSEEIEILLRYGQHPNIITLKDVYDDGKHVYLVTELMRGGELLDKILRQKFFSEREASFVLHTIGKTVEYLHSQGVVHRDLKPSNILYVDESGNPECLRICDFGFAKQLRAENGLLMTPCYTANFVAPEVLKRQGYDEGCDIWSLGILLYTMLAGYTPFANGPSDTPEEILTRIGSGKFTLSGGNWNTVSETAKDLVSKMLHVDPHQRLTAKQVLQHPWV
The note with it: read-out: % control. The method in brief:
as §1

For test [4], the target named is T3, KIT(V559D) (Homo sapiens, UniProt P10721, V559D).
T3 construct: purchased KinomeScan®
T3 sequence (P10721 26-976 V559D): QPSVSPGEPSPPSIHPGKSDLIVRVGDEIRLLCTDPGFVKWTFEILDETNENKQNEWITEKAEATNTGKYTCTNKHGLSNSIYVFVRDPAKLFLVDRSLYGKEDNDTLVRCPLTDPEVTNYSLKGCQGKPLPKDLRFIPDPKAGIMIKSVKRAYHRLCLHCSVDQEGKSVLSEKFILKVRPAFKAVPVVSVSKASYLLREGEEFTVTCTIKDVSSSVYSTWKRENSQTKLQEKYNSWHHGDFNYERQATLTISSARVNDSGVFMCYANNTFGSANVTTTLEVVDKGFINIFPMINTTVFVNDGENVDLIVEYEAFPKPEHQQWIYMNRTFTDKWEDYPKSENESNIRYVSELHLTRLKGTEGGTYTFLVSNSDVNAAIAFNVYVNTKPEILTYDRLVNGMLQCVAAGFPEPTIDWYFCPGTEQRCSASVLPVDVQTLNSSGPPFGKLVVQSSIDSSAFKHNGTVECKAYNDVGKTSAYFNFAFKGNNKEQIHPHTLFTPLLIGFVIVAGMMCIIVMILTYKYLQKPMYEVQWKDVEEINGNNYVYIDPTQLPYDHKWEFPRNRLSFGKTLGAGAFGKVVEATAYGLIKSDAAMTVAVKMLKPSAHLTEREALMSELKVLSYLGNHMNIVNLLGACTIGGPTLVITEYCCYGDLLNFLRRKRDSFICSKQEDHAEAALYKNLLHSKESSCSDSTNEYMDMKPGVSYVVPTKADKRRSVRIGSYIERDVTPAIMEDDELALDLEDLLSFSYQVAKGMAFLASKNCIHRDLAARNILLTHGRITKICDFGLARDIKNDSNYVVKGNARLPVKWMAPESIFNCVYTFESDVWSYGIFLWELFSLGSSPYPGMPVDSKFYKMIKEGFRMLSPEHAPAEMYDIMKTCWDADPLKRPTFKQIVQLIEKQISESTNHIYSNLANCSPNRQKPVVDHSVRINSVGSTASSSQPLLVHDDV
The note with it: read-out: % control. The method in brief: as §1

The target of test [5] is T4, RIPK1 (Homo sapiens, UniProt Q13546).
T4 sequence (Q13546 1-671): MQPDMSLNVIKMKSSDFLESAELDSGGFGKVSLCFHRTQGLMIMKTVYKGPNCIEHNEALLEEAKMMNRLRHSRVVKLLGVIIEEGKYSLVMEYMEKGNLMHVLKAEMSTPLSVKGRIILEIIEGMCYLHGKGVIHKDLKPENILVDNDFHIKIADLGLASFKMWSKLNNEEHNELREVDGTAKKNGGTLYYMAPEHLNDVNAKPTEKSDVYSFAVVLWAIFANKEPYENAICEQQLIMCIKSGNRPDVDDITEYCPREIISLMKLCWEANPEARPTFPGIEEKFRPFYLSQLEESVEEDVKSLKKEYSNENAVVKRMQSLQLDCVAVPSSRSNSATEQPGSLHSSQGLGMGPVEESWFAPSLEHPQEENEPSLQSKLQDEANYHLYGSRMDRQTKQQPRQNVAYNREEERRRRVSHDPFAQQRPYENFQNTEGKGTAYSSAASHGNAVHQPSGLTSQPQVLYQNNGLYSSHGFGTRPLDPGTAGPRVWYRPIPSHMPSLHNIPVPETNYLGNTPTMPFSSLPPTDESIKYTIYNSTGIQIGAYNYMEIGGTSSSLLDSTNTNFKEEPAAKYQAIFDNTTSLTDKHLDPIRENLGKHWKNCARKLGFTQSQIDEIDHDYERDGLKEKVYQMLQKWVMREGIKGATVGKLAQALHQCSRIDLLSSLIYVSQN
The note with it: RIPK1, 1 μM; read-out: % control. The method in brief:
as §1

Test [6] addresses PAK7 (Homo sapiens, UniProt Q9P286). The note with it: PAK7, 1 μM; read-out: % control. The method in brief: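 Test agents were profiled at a single concentration of 1 μM (DMSO vehicle) on a near-complete set of 468 kinases. Signal is reported relative to vehicle (100%) and a fully displacing control (0%).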
Test [7] addresses T5, ANKK1 (Homo sapiens, UniProt Q8NFD2).
T5 construct: purchased KinomeScan®
T5 sequence (Q8NFD2 1-765): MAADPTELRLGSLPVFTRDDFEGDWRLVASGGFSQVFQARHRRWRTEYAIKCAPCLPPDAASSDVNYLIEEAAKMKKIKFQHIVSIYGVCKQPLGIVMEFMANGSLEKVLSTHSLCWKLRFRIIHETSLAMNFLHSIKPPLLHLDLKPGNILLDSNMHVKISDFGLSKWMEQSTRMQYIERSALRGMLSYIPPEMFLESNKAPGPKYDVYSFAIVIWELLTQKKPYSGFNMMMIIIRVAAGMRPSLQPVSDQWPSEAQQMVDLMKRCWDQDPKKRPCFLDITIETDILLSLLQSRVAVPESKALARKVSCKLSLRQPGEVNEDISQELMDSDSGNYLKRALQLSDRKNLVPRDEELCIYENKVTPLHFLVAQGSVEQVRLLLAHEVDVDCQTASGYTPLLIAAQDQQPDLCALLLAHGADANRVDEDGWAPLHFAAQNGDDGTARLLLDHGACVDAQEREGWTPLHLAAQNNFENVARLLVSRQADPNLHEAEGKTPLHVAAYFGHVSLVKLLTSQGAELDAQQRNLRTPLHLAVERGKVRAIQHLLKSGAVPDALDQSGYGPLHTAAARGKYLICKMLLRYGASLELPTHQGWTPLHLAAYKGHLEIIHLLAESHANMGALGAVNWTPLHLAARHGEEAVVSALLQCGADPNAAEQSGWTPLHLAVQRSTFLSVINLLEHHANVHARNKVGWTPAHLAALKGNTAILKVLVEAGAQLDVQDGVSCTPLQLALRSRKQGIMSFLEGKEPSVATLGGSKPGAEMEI
The note with it: ANKK1, 1 μM; read-out: % control. The method in brief: as §1

Test [8] concerns the target T6, PIP5K1C (Homo sapiens, UniProt O60331).
T6 construct: purchased KinomeScan® (panel service)
The note with it: read-out: % control. The method in brief: as §1

Test [9] has as its target DAPK3 (Homo sapiens, UniProt O43293). The note with it: DAPK3, 1 μM; read-out: % control. The method in brief:
as §1

The structures appear in SMILES notation.

T6 sequence (O60331 whole entry): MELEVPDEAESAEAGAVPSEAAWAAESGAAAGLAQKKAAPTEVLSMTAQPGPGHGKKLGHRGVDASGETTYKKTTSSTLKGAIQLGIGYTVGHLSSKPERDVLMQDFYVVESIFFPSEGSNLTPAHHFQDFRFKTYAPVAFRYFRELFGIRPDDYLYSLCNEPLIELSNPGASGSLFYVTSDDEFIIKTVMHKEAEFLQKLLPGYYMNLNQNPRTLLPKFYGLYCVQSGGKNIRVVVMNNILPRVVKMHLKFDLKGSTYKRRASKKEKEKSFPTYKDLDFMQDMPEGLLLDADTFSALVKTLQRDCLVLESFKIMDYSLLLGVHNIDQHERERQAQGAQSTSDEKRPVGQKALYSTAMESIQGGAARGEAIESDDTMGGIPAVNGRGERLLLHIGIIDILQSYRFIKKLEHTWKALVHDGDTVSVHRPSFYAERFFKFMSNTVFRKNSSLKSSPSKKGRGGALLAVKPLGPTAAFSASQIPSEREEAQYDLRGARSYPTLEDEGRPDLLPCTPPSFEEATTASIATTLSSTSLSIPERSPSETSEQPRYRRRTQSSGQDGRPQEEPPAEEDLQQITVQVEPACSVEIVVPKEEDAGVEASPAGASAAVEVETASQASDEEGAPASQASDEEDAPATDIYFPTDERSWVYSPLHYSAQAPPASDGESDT
PAK7, sequence (Q9P286 whole entry): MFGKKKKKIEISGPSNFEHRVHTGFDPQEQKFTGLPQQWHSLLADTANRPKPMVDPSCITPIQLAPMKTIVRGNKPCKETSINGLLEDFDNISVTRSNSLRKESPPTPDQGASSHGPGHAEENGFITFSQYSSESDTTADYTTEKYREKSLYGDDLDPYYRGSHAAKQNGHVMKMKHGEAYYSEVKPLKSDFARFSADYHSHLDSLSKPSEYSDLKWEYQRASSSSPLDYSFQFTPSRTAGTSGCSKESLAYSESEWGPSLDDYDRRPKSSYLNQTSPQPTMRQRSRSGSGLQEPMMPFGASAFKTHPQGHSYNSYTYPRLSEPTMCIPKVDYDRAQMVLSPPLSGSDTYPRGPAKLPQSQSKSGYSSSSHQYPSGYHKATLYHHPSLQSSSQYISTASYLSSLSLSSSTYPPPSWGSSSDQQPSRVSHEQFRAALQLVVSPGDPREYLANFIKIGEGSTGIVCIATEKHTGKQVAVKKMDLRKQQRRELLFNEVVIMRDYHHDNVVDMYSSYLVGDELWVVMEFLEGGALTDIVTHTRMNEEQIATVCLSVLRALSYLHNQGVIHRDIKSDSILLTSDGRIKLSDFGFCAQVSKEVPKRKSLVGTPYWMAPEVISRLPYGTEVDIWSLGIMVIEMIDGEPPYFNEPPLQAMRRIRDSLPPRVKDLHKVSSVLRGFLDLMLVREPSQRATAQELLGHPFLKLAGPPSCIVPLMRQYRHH
MKNK2, sequence (Q9HBH9 whole entry): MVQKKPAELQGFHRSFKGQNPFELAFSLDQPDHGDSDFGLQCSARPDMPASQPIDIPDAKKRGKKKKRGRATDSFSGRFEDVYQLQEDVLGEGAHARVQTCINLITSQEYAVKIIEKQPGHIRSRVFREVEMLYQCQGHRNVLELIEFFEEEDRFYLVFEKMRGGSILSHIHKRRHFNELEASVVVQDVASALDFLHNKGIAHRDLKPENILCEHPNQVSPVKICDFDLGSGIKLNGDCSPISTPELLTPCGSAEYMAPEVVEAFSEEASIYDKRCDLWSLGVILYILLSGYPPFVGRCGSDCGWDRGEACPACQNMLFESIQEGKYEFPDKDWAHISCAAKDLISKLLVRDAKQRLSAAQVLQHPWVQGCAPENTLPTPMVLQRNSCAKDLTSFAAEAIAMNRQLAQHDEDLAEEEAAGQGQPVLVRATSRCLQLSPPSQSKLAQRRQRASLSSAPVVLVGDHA
DAPK3, sequence (O43293 whole entry): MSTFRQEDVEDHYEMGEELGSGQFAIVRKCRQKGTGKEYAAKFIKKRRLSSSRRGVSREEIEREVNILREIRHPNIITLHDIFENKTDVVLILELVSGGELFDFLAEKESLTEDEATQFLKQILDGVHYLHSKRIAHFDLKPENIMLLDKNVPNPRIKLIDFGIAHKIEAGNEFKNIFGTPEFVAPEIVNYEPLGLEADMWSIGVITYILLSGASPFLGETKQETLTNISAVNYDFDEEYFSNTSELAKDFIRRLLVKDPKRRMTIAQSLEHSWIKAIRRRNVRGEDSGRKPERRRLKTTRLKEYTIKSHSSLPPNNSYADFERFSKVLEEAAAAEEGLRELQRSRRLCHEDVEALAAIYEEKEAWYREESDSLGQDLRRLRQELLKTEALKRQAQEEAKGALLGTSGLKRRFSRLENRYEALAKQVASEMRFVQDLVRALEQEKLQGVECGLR

With `CNc1c(-c2cnn([C@H]3CCN(C(C)=O)C[C@@H]3F)c2)cnc2[nH]cc(Cl)c12` [Compound 77, 1-((3S,4S)-4-(4-(3-chloro-4-(methylamino)-1H-pyrrolo[2,3-b]pyridin-5-yl)-1H-pyrazol-1-yl)-3-fluoropiperidin-1-yl)ethan-1-one], the remaining binding at 1 µM worked out at 83% in [1]; 56% in [2]; 99% in [3]; 2.8% in test [4]; 19% in test [5]; 100% in test [6]. Further, the remaining binding at 1 µM in test [7] is 73%; in test [8] it was 37%; in [9], 79%.

`CNc1c(-c2ccc(C(=O)N3CCC(N4CCOCC4)CC3)cc2)cnc2[nH]cc(Cl)c12` [Compound 96, (4-(3-chloro-4-(methylamino)-1H-pyrrolo[2,3-b]pyridin-5-yl)phenyl)(4-morpholinopiperidin-1-yl)methanone]: the remaining binding at 1 µM in test [1] was determined as 74%; in test [2], 22%; in [3], 100%; in test [4], 4.5%; in [5], 44%; in test [6], 41%. Further, the remaining binding at 1 µM worked out at 51% in test [7], 49% in test [8] and 96% in [9].

On to `O=C(c1ccc(-c2cnc3[nH]cc(Cl)c3c2NC2CCCC2)cc1)N1CCC(N2CCOCC2)CC1` [Compound 101, (4-(3-chloro-4-(cyclopentylamino)-1H-pyrrolo[2,3-b]pyridin-5-yl)phenyl)(4-morpholinopiperidin-1-yl)methanone], for which the remaining binding at 1 µM in test [1] is 98%; in test [2], 94%; in test [3], 88%; in [4], 50%; in [5], 47%; in test [6], 95%. Besides, the remaining binding at 1 µM in test [7] was 100%; in test [8], 57%; in [9], 88%.

These data come from patent US12275731B2, “Azaindole inhibitors of wild-type and mutant forms of LRRK2” (DANA-FARBER CANCER INSTITUTE, INC., priority 2018, dated 2025).
